The supplement of paper PMC10702517
± gives the standard deviation.

Assay: chemical recovery from spiked human plasma; higher = better extraction
Conditions: pooled human plasma
[1] = extraction method: SPE only (HLB 96-well), PES comparison experiment
[2] = extraction method: PES+SPE (3 d PDMS equilibration then HLB SPE)
[3] = extraction method: SPE only (HLB 96-well)
[4] = extraction method: solvent precipitation (ACN + hexane)

chemical recovery [1] [%]	Compound	chemical recovery [2] [%]	chemical recovery [3] [%]	chemical recovery [4] [%]
11 ± 2.6	c1ccc2c(c1)Cc1ccccc1-2 [Fluorene]	–	–	–
47.4 ± 6.2	CC(=O)OCC(=O)[C@@]1(O)CC[C@H]2[C@@H]3CCC4=CC(=O)CC[C@]4(C)[C@H]3[C@@H](O)C[C@@]21C [Hydrocortisonacetate]	–	–	–
9.45 ± 7.5	CCN(CCO)CCCC(C)Nc1ccnc2cc(Cl)ccc12 (configuration not stated) [Hydroxychloroquine]	–	–	–

Further lines, the compound ahead of its results:

Compound	chemical recovery [1] [%]	chemical recovery [2] [%]	chemical recovery [3] [%]	chemical recovery [4] [%]
CC1(C)O[C@@H]2C[C@H]3[C@@H]4C[C@H](F)C5=CC(=O)C=C[C@]5(C)[C@@]4(F)[C@@H](O)C[C@]3(C)[C@]2(C(=O)CO)O1 [Fluocinolone acetonide]	46.1 ± 5.2	–	–	–
O=C(NCc1ncc(C(F)(F)F)cc1Cl)c1c(Cl)cccc1Cl [Fluopicolide]	–	65.8 ± 11	58.1 ± 3.7	79.1 ± 2.3
O=C(NCCc1ncc(C(F)(F)F)cc1Cl)c1ccccc1C(F)(F)F [Fluopyram]	–	–	–	67.8 ± 2.1
CC(C)(C)c1ccc2oc(-c3ccc(-c4nc5cc(C(C)(C)C)ccc5o4)s3)nc2c1 [Fluorescent-Brightener-184]	–	–	0.938 ± 0.39	–
OCCN1CCN(CCC=C2c3ccccc3Sc3ccc(C(F)(F)F)cc32)CC1 [Flupentixol]	–	–	–	51.7 ± 2.5
O=C1C=C(N(Cc2ccc(Cl)nc2)CC(F)F)CO1 [Flupyradifurone]	–	43.9 ± 3.3	39.3 ± 3.1	76.9 ± 2.6
CC(C)Oc1cccc(NC(=O)c2ccccc2C(F)(F)F)c1 [Flutolanil]	–	53.5 ± 4.5	38.9 ± 0.5	60.8 ± 4.7
OC(Cn1cncn1)(c1ccc(F)cc1)c1ccccc1F (configuration not stated) [Flutriafol]	–	43.2 ± 5.4	41.9 ± 3.3	78.9 ± 4
Cn1cc(C(=O)Nc2ccccc2-c2cc(F)c(F)c(F)c2)c(C(F)F)n1 [Fluxapyroxad]	–	69.6 ± 10	65 ± 3	79.9 ± 1.2
COc1cc(OC)nc(NC(=O)NS(=O)(=O)c2cc(NC=O)ccc2C(=O)N(C)C)n1 [Foramsulfuron]	–	–	–	69 ± 4.2
CNC(=O)Oc1cccc(/N=C/N(C)C)c1 [Formetanate]	–	–	8.98 ± 3.5	2.27 ± 3.9
CC1COCc2cc3c(cc21)C(C)(C)C(C)C3(C)C (configuration not stated) [Galaxolide]	–	39.1 ± 9.8	13.7 ± 2.7	99.6 ± 18
CC1(C)[C@@H](O[C@H]2O[C@H](C(=O)O)[C@@H](O)[C@H](O)[C@H]2O[C@@H]2O[C@H](C(=O)O)[C@@H](O)[C@H](O)[C@H]2O)CC[C@]2(C)[C@H]3C(=O)C=C4[C@@H]5C[C@@](C)(C(=O)O)CC[C@]5(C)CC[C@@]4(C)[C@]3(C)CC[C@@H]12 [Glycyrrhizin]	–	14.5 ± 4.5	16.6 ± 2.5	0.719 ± 0.66
N=C(N)NC(=O)Cc1c(Cl)cccc1Cl [Guanfacine]	–	43.1 ± 2.6	44 ± 3.3	57.9 ± 5
O=C(O)C(F)(OC(F)(F)C(F)(F)C(F)(F)F)C(F)(F)F (configuration not stated) [HFPO-DA]	–	–	30.7 ± 3	67.4 ± 3.1
CC(Oc1ccc(Oc2ncc(C(F)(F)F)cc2Cl)cc1)C(=O)O (configuration not stated) [Haloxyfop-P]	–	41 ± 2.6	33.1 ± 3.1	68.1 ± 2.8
Cc1nccc2c1[nH]c1ccccc12 [Harman]	48.2 ± 6	36.2 ± 5.5	34.9 ± 2.5	74.4 ± 3.2
COc1ccc2c(c1)[nH]c1c(C)nccc12 [Harmine]	48.6 ± 4.2	37.8 ± 5.3	37.3 ± 2.9	–
ClC1=C(Cl)C2(Cl)C3C4OC4C(Cl)C3C1(Cl)C2(Cl)Cl (configuration not stated) [Heptachlor epoxide]	–	–	1.06 ± 0.28	18.7 ± 2.8
CCCCCCCCCCCCCCCC[N+](C)(C)C [Hexadecyltrimethylammonium]	–	–	50.1 ± 19	–
CCCCCCN [Hexylamine]	–	3.2 ± 1.1	8.65 ± 5.7	19.7 ± 6
CC1CC(OC(=O)c2ccccc2O)CC(C)(C)C1 (configuration not stated) [Homosalate]	–	–	0.169 ± 0.033	41 ± 2.4
c1ccc(NNc2ccccc2)cc1 [Hydrazobenzene]	–	–	2.13 ± 0.29	–
N=C1NCCN1Cc1ccc(Cl)nc1 [Imidacloprid-guanidine]	–	–	26.9 ± 4.3	73 ± 3
